According to article PMC12261321, “Inhibitors of the Bacterioferritin Ferredoxin Complex Dysregulate Iron Homeostasis and Kill and Biofilm-Embedded Cells” (ACS Infectious Diseases, 2025):
Values after ≈ are worked out from the molar mass of the structure shown.

Assays:
[1] = Determination of compound aqueous solubility in M63 media; format: physicochemical; conditions: in M63 media at 35 °C
Procedure: Determination of Compound Aqueous Solubility. Compound stocks (100 mM in DMSO) were prepared from […]
powder and then further diluted with DMSO to prepare 20 mM working solutions, which were diluted as needed […]
in DMSO. 15 µL o f the DMSO solution was then d iluted to a final volume o f 1.0 mL in M63 media. Six solutions […]
were prepared for each compound, each with a distinct concentration and 1.5% DMSO (v/v). 700 µL of each […]
compound solution was transferred to a polystyrene 48-well plate (VWR), followed by acquisition of UV-vis […]
spectra (300 to 700 nm) with the aid of an Epoch 2 microplate reader (B i o Te k ). […]
Following the acquisition of UV-vis spectra, each of the wells in the plate was inspected under a […]
microscope for evidence of precipitation. Evidence of precipitation at any given concentration was determined by observing a shift in the baseline of the UV-vis spectra relative to the blank (M63 media) and/or evidence of visual precipitation with the aid of a micros cope. […]

[2] = Stability in aqueous solution; format: physicochemical
recombinant Pa BfrB = molecular target: T1, recombinant Pa BfrB (Pseudomonas aeruginosa, UniProt Q9HY79); assay: Dissociation constant (Kd), fluorescence quenching titration of apo Pa BfrB; format: binding, P. aeruginosa
T1 construct: made in house; host or cells: E. coli
Procedure: Measurement of Dissociation Constant (Kd) R ecombinant Pa BfrB was expressed in E. coli and purified as previously reported.19 Apo-BfrB (devoid of heme) was utilized for the measurements to prevent heme-driven fluorescence quenching. A 0.5 mL solution contai ning 0.01 µM apo Pa-BfrB in PBS (pH = 7.4) containing0.5% DMSO was plac ed into a 1 cm quartz cuvette wh ere it was titrated with aliq uots of compound dissolved in a 50% (v/v) PBS/DMSO solution. The fluorescence quenching brought by the addition of each aliquot was monitored with the aid of an Agilent Cary Fluorometer , with excitation at 280 nm, emission at 320- 470 nm, 10 x10 nm slit width, and an average of 5 scans per spectrum. Th e binding assay included at least 8 aliquots spanning from ~ 0.1 […]
A control titration was carried out by titrati ng compound into PBS buffer. The Kd was cal culated by fitting the data to equation S4, w here Fb is the fraction bound and Fmax is the fraction bound at saturating compound concentration.
FFbb = FFmmmmmm ? [ccccmmccccccmmcc ]? (S4) […]

P. aeruginosa PAO1 = assay: Half maximal inhibitory concentration (IC50), planktonic growth (CFU/mL); format: cell-based; conditions: M63 media, 18 h
Procedure: Measurement of Half Maximal Inhibitory Concentration (IC50). IC50 values were determined as reported earlier13 with some modifications. Compound stock solutions in DMSO (100 mM and 10 mM) were prepared from powd er. To prep are the cell susp ensions utilized in the measu rements, starter cultures o f P. aeru ginosa wer e diluted to an optical density at 600 nm (OD600) = 0.005 in fresh LB media (5 mL) and then cultured at 37°C and 220 rpm for 4 h prior to diluting to an OD600 = 0.0001 in M63. A small volume of compound stock solution w as further diluted in DMSO to 30 µL and then diluted in M63 cell suspension to a final volume of 2.0 mL. The resultant solution was placed in a well of a 96-well plate and then serially 2-fold diluted in M63 cell suspension to produce 6 distinct com pound concent rations, each with 1.5% DMSO. Th e plate was co ver ed and incubated for 18 h at 35 °C in a Synergy H1 plate reader (Biotek). The resultant cell cultures were serially diluted in PBS and then plated on PI Agar plates (PIA; BD biosciences) for counting viable cells (CFU/mL). The % growth was calculated from the ratio CFU/mL(t reat ed )/CFU/mL(untreated control). To calculate the IC50 values, the % growth was plotted as a function of compound concentration expressed as log[compound] ( µM), and fitted to equation S1 describing the sigmoid- shaped response pattern, 14 where b is the slope factor, max is the upper asymptote (plateau), and min is the lower asymptote. IC 50 values are the average and standard deviation from three independent experiments , each conducted with thr ee techni cal replicates.

A. baumannii 5075 [3] = assay: MIC, broth microdilution in M63 media; format: cell-based
Procedure: (§1) Measurement of Minimum Inhibitory Concentrations (MIC). The MIC of compounds and select ed antibiotics against three strains of A. baumannii (5075, ATCC 17988, and ATCC 19606) were determined via the broth microdilution method according to Clinical and Laboratory Standard Instit ute (CLSI) guidelines,15 but culturing […]
(§2) To establish a 2-fold dilution series of compound, 985 μ L of diluted cells was mixed with 15 μ L of compound […]
(§3) dissolved in DMSO, such that the resultant solution had the highest concentration of compound or antibiotic tested and 1.5% DMSO. To carry out the serial dilution from the highest compound concentration, a 150 μ L solution of higher concentration compound or antibiotic was mixed with 150 μ L of cell suspension containing 1.5% DMSO in the wells of a 96 well plate.
(§4) Th e 96 well plate was in cubated for 20 hat 35 °C with continuous orbital shaking (205 cpm) in an Epoch2 microplate reader (BioTek), monitoring the growth by […]
(§5) following the OD600. […]
(§6) FFFFFF = MMMMMMAA iiii ccllccbbiiiicccciilliiMMMMMMAA+ MMMMMMBB iiii ccllccbbiiiicccciilliiMMMMMMBB S2 Time Kill Assays. Time-kill assays were performed with A. baumannii 507 5 by the broth macro- dilution method in M63- medium containing 1.5% DMSO. An overnight culture was diluted to approximately 5 x10^5 CFU/mL in fresh M63 media. The test solutions were prepared by adding compound (KM-5- 35, or KM-5- 25) dissolved in DMSO to 5 mL of diluted cell suspension to yield a solution of the desired compound concentration and 1.5% DMSO, or by the addition of antibiotic dissolved in water and a small volume of DMSO to produce the desired

A. baumannii ATCC 17978 = assay: MIC, broth microdilution in M63 media; format: cell-based
Procedure: as §1, §2, §3, §4, §5, §6

A. baumannii ATCC 19606 = assay: MIC, broth microdilution in M63 media; format: cell-based
Procedure: as §1, §2, §3, §4, §5, §6

A. baumannii 5075 [4] = assay: Checkerboard assay; format: cell-based; conditions: 5075; for MIC: Acinetobacter baumannii; for Interaction of the antibiotic with KM-5–25: checkerboard
Procedure: To carry out the serial dilution from the highest compound concentration, a 150 μ L solution of higher concentration compound or antibiotic was mixed with 150 μ L of cell suspension containing […] Th e 96 well plate was in cubated for 20 hat 35 °C with continuous orbital shaking (205 cpm) in an Epoch2 microplate reader (BioTek), monitoring the growth by following the OD600. […] All assays were p erfo rmed in three biological replicates, each with three […] replicates. Checkerboard Assay. […] CFU/mL. […] in the vertical and hori zontal direction, respectivel y. Bacterial suspensions were […] escrib ed above fo r the MIC determination and added to the plates. […] The 96-well […] cubated for 20 h at 35 °C with continuous orbital shaking (205 cpm) in an Epoch2 microplate reader (BioTek), monitoring the growth by following the OD600. The MIC values of inhibitor and antibiotic were obtained from the corresponding row or column which contained only one component, whereas the remaining rows and columns were utilized for calculating the fractional inhibitory concentration index (FIC) with the aid of equation […] = […]2 Time Kill Assays. Time-kill assays were performed with A. baumannii 507 5 by the broth macro- dilution method […] An overnight culture was diluted to approximately 5 x10^5 CFU/mL in fresh […] media. […] DMSO, or by the addition of antibiotic dissolved in water and a small volume of DMSO to produce the desired S7

Pa Bfr = conditions: earlier work, reference number not given; read-out: Kd of Pa Bfd binding to Pa Bfr; cited from earlier work
[5] = agent alone, KM-5–35 14 μg/mL = 40 μM

T1 sequence (Q9HY79 whole entry): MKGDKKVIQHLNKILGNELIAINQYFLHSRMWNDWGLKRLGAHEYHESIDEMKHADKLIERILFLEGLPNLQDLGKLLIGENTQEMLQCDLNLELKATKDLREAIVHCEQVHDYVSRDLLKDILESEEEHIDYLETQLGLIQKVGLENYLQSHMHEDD

O=C1NC(=O)c2c(NCc3ccc(O)cc3O)cccc21 [BN-16-69]
Solubility [1]: Unstable
stability in aqueous solution [2]: unstable in aqueous solution

O=C1NC(=O)c2c(NCc3c(O)cccc3O)cccc21 [BN-16-70]
Solubility [1]: Unstable
stability in aqueous solution [2]: unstable in aqueous solution

O=C1NC(=O)c2c(NCc3cc(O)ccc3O)cccc21 [EB-5-93]
Solubility [1]: Unstable
stability in aqueous solution [2]: unstable in aqueous solution

Cc1cccc(O)c1CNc1cccc2c1C(=O)NC2=O [SB-15-171]
Solubility [1]: Unstable

Cc1ccc(O)c(CNc2ccc(Br)c3c2C(=O)NC3=O)c1 [SB-16-122]
solubility at 4 h [1]: 40 µM (≈ 14.4 µg/mL)
Kd (recombinant Pa BfrB): 5 ± 1 µM
IC50 (P. aeruginosa PAO1; planktonic cells): 19 ± 4 µM
MIC (A. baumannii 5075 [3]; 20 h): 20 µM (≈ 7.22 µg/mL)
MIC (A. baumannii ATCC 17978; 20 h): 20 µM (≈ 7.22 µg/mL)
MIC (A. baumannii ATCC 19606; 20 h): 20 µM (≈ 7.22 µg/mL)

O=C1NC(=O)c2c(NCc3cc(O)c(Br)cc3O)cccc21 [SB-16-186]
Solubility [1]: Unstable

O=C1NC(=O)c2c(NCC3CCOCC3)cccc21 [SB-16-237]
solubility at 4 h [1]: 100 µM (≈ 26 µg/mL)
Kd (recombinant Pa BfrB): 42 ± 10 µM
IC50, P. aeruginosa PAO1 (P. aeruginosa PAO1; planktonic cells): Not active
MIC (A. baumannii 5075 [3]; 20 h): > 100 µM
MIC (A. baumannii ATCC 17978; 20 h): > 100 µM
MIC (A. baumannii ATCC 19606; 20 h): > 100 µM

O=C1NC(=O)c2c(NCc3ccc4[nH]ccc4c3)cccc21 [SB-17-16]
Solubility [1]: Not soluble

O=C1NC(=O)c2c(NCc3cccc4[nH]ccc34)cccc21 [SB-17-75]
solubility at 4 h ([1]; M63 media with 1.5% DMSO, 35 °C, aqueous buffer, kinetic from dmso stock): 60 µM (≈ 17.5 µg/mL)
Kd (recombinant Pa BfrB): 15 ± 2 µM
IC50 (P. aeruginosa PAO1; Pseudomonas aeruginosa, PAO1, planktonic cells): 32 ± 13 µM
MIC (A. baumannii 5075 [3]; Acinetobacter baumannii, 5075, 20 h): 30 µM (≈ 8.74 µg/mL)
MIC (A. baumannii ATCC 17978; Acinetobacter baumannii, ATCC17978, 20 h): 60 µM (≈ 17.5 µg/mL)
MIC (A. baumannii ATCC 19606; Acinetobacter baumannii, ATCC19606, 20 h): 30 µM (≈ 8.74 µg/mL)

Cn1ccnc1CNc1cccc2c1C(=O)NC2=O [SB-17-95]
solubility at 4 h [1]: 100 µM (≈ 25.6 µg/mL)
Kd (recombinant Pa BfrB): 57 ± 6 µM
IC50, P. aeruginosa PAO1 (P. aeruginosa PAO1; planktonic cells): Not active
MIC, A. baumannii 5075 (A. baumannii 5075 [3]; 20 h): Not active
MIC, A. baumannii 17978 (A. baumannii ATCC 17978; 20 h): Not active
MIC, A. baumannii 19606 (A. baumannii ATCC 19606; 20 h): Not active

O=C1NC(=O)c2c(NCc3ccc4c(c3)CCO4)cccc21 [SB-17-98]
Solubility [1]: Not soluble

O=C1NC(=O)c2c(NCc3ccc4occc4c3)cccc21 [SB-17-109]
Solubility [1]: Not soluble

O=C1NC(=O)c2c(NCc3cccc4c3CCO4)cccc21 [SB-17-110]
Solubility [1]: Not soluble

Cn1ccc2ccc(CNc3cccc4c3C(=O)NC4=O)cc21 [SB-17-114]
Solubility [1]: Not soluble

CC(C)(O/N=C(\C(=O)N[C@@H]1C(=O)N2C(C(=O)[O-])=C(C[n+]3ccccc3)CS[C@H]12)c1csc(N)n1)C(=O)O [ceftazidime, reference compound]
MIC (A. baumannii 5075 [4]; [5]): 256 µg/mL

O=C(O)c1cn(C2CC2)c2cc(N3CCNCC3)c(F)cc2c1=O [ciprofloxacin, reference compound]
MIC (A. baumannii 5075 [4]; [5]): 128 µg/mL

C[C@@H](O)[C@H]1C(=O)N2C(C(=O)O)=C(SCCN=CN)C[C@H]12 [imipenem, reference compound]
MIC (A. baumannii 5075 [4]; [5]): 1 µg/mL
Interaction of the antibiotic with KM-5–25 (A. baumannii 5075 [4]): additive

C[C@@H](O)[C@H]1C(=O)N2C(C(=O)O)=C(S[C@@H]3CN[C@H](C(=O)N(C)C)C3)[C@H](C)[C@H]12 [meropenem, reference compound]
MIC (A. baumannii 5075 [4]; [5]): 2 µg/mL

NC[C@H]1O[C@H](O[C@H]2[C@H](O)[C@@H](O[C@H]3O[C@H](CO)[C@@H](O)[C@H](N)[C@H]3O)[C@H](N)C[C@@H]2N)[C@H](N)C[C@@H]1O [tobramycin, reference compound]
MIC (A. baumannii 5075 [4]; [5]): 512 µg/mL

colistin [reference compound]
MIC alone (A. baumannii 5075 [4]; [5]): 1 µg/mL
Interaction of the antibiotic with KM-5–25 (A. baumannii 5075 [4]): synergy

B1: Pa Bfd: Bfr associated ferredoxin that binds Pa Bfr (protein, UniProt Q9HY80 1-73, looked up)
Bacterioferritin-associated …: MYVCLCQGVTDNQIRDAIYEGCCSYREVREATGVGTQCGKCACLAKQVVRETLNDLQSAQPVPAFGTTAFVAA
Kd (Pa Bfr): 4.7 µM
